Source: publication PMC2981624 (Chemical research in toxicology, 2010)
“Also recorded” adds a separate entry of the source. Where two headings read alike, the source gives them in different places.

Legend:
[1] = system: Salmonella typhimurium strain TA100; conditions: cited from earlier work
[2] = system: Salmonella typhimurium strain TA98; conditions: for concentration dependence of mutagenicity (revertants/plate): 0.1-100 μM
[3] = system: Salmonella typhimurium strain TA100; conditions: 10 and 100 μM (Figure 1)
lung adenoma = conditions: cited from earlier work
[4] = system: Salmonella typhimurium strain TA98; conditions: cited from earlier work
[5] = system: primary normal human lung cells; conditions: 0.1 to 10 μM; cited from earlier work
[6] = 10 μM, 50 pmol 1A1 Supersomes, presence of NADPH
[7] = 10 μM, 50 pmol recombinant 2A13, presence of NADPH
[8] = 0.5 mg human lung microsomes, presence of NADPH
[9] = 2 mg rat liver S9, presence of NADPH
[10] = 0.5 mg human lung microsomes, presence of NADPH, equal concentrations

In the case of CN(CCCC(=O)c1cccnc1)N=O [NNK, 4-(methylnitrosamino)-1-(3-pyridyl)-1-butanone, reference compound], the “base pair substitution mutations” value [1] is given as “does not cause base pair substitution mutations”, the “mutagenicity (revertants/plate)” value [2, 6] is given as “did not result in an increased number of revertants” and the “mutagenicity (revertants/plate)” value [2, 7] is given as “statistically significant increases in the number of revertants per plate”. The “concentration dependence of mutagenicity (revertants/plate)” value [2, 8] was “mutagenicity increased in a concentration-dependent manner up through the 100 μM concentration”, the “mutagenicity (revertants/plate)” value [3, 8] was “failed to increase mutagenesis at any concentration” and the “mutagenicity (revertants/plate)” value [3, 9] was “failed to increase mutagenesis at any concentration”.

For COc1c2occc2cc2ccc(=O)oc12 [8-MOP, 8-methoxypsoralen], the chemopreventive effect (lung adenoma) is listed as “chemopreventive effect”.

In the case of Cc1c[nH]c2ccccc12 [3MI, 3-methylindole], the mutagenicity ([1]; rat liver S9) is listed as “not mutagenic”, the “mutagenicity (revertants/plate)” value [2, 6] is listed as “statistically significant increases in mutagenicity” and the “mutagenicity (number of mutants)” value ([2]; 10 μM, 50 pmol purified 2F3, presence of NADPH) is listed as “significant increase in the number of mutants”. The “mutagenicity (revertants/plate)” value [2, 7] was “statistically significant increases in the number of revertants per plate; also recorded: highest levels of mutagenicity”, the “cytotoxicity to bacteria (density of background lawn)” value ([2]; 100 μM, 0.5 mg human lung microsomes) was “cytotoxic” and the “concentration dependence of mutagenicity (revertants/plate)” value [2, 8] was “increasing mutagenicity up through the 10 μM concentration, but lower revertants/plate with the highest concentration (100 μM)”. For the same molecule, the “mutagenicity compared to BaP” value [2, 10] was “more mutagenic than BaP was at the 1.0 μM (p=0.006) and 10 μM (p=0.005) concentrations, although not at the 0.1 μM (p=0.1) or 100 μM (p=0.9) concentrations”, the “mutagenicity compared to NNK” value [2, 10] was “significantly more mutagenic than NNK was at the 0.1 μM (p=0.05), 1.0 μM (p=0.002), and 10 μM (p=0.007) concentrations, although not at the 100 μM (p=0.8) concentration” and the “mutagenicity (revertants/plate)” value ([2]; 2 mg human liver S9, presence of NADPH) was “Neither incubation of 3MI with Salmonella typhimurium strain TA98 and 2 mg human liver S9, or 2 mg rat liver S9 was mutagenic; also recorded: failed to produce 3MI-mediated mutagenesis”. For the same molecule, the “mutagenicity (revertants/plate)” value [2, 9] was “Neither incubation of 3MI with Salmonella typhimurium strain TA98 and 2 mg human liver S9, or 2 mg rat liver S9 was mutagenic; also recorded: failed to produce 3MI-mediated mutagenesis”, the mutagenicity ([4]; purified CYP2F3) was “mutagenic” and the mutagenicity ([4]; rat liver S9 fractions) was “not mutagenic”. For the same molecule, the “induction of markers of carcinogenesis” value [5] was “induce markers of carcinogenesis, including DNA damage and p53 nuclear localization”, the “mutagenicity (revertants/plate)” value [3, 8] was “failed to increase mutagenesis at any concentration” and the “mutagenicity (revertants/plate)” value [3, 9] was “failed to increase mutagenesis at any concentration”.

With Nn1nnc2ccccc21 [ABT, 1-aminobenzotriazole, reference compound] the “mutagenicity of inhibitor alone” value ([2]; 0.5 mM ABT alone, 0.5 mg human lung microsomes) was “did not prove to be mutagenic”, the “effect on 3MI-mediated mutagenesis” value ([2]; 0.5 mM ABT with 100 μM 3MI, 0.5 mg human lung microsomes, presence of NADPH) was “completely inhibited the mutagenesis” and the “effect on B(a)P-mediated mutagenesis” value ([2]; 0.5 mM ABT with 100 μM B(a)P, 0.5 mg human lung microsomes, presence of NADPH) was “completely inhibited the mutagenesis”. The “effect on NNK-mediated mutagenesis” value ([2]; 0.5 mM ABT with 100 μM NNK, 0.5 mg human lung microsomes, presence of NADPH) was “completely inhibited the mutagenesis”.
